Laboratory results from patent EP0267996A1, “New nucleotide derivatives” (TAMIR BIOTECHNOLOGY LTD., priority 1986, dated 1988).

What was measured:
Assay type in all cases: binding
Conditions in all cases: for Cross-reaction (%): RIA, 100x/y, masses of testosterone and heterologous compound giving 50% inhibition of binding of the tritiated ligand
[1] = system: Polyclonal Rat IgG to testosterone (from the rats used for the fusion experiments); experiment: Dextran-coated charcoal radioimmunoassay (RIA): affinity and specificity of antibody
Procedure: Immunization: Wistar-derived female rats (2 to 3 months old) from the Departmental Colon y were immunized by an intradermal injection of testosterone-3-(O-carboxymethyl)-oxime bovine serum albumin conjugate (200 ug/rat) incorporated in complete Freund's adjuvant. A month later the injection was repeated, and booster injections (100 ug/rat) were given three weeks later. All animals were bled from the tail ten days after the booster injection, and the antisera were tested then for titer and specificity.
(§1) Characterization of antibodies: A dextran-coated charcoal radioimmunoassay method was used to detect specific antibodies to testosterone. Antibody titer denotes the dilution at which 50% of the labelled ligand, added at concentrations of 50 pg./ml., is bound as determined by radioimmunoassay. Cross reactivity (%) was calculated as proposed by Thorneycroft et al ("Immunologic Methods", Steroid Determination, Peron and Caldwell, eds., Appleton-Century-Crofts, New York 1970, pp. 63-86). as 100x/y where x is the mass of testosterone and y is the mass of heterologous compound required to produce 50% inhibition of the binding of the tritiated ligand. Affinity of the antibodies was calculated according to Abraham et al in Handbook of Radioimmunoassay, Marcel Dekker Inc., New York, 1977, pp. 591-656.

[2] = system: monoclonal antibody to testosterone, clone F2 (rat spleen x mouse myeloma NSO/1 hybridoma; heavy chain class IgM); experiment: Dextran-coated charcoal radioimmunoassay (RIA): affinity and specificity of antibody in ascitic fluid
Procedure: as §1
(§2) After two weeks of growth, antibody-secreting hybridomas were detected by a RIA procedure in the tissue culture media of 30 out of the 147 cultures. During subsequent cell culture, 3 hybridoma lines that yielded high antibody titers were cloned by limiting dilutions and sub-cloned on semi-solid agar. When injected i.p. into pristane-trea ted irradiated F₁ mice or nude mice, the hybridomas grew as tumors and secreted high amounts of anti-testosterone antibodies into the ascitic fluid of these mice, with titers ranging from 1:10,000 to 1:60,000 (Table 1).
(§3) Characterization of monoclonal antibodies: The ascitic fluid of mice derived from three hybridomas. H₆, F₂ and D₁₁ was further characterized for affinity and specificity by a dextran-coated RIA procedure.

[3] = system: monoclonal antibody to testosterone, clone D11 (rat spleen x mouse myeloma NSO/1 hybridoma; heavy chain class Y2a); experiment: as above
Procedure: as §1, §2, §3

[4] = system: monoclonal antibody to testosterone, clone H6 (rat spleen x mouse myeloma NSO/1 hybridoma; heavy chain class Y2a); experiment: as above
Procedure: as §1, §2, §3

[5] = calculated according to the method of Abraham et al

SMILES	Cross-reaction (%) [1] [%]	Cross-reaction (%) [2] [%]	Cross-reaction (%) [3] [%]	Cross-reaction (%) [4] [%]	Ka [1, 5] [L/mol]	Ka [2, 5] [L/mol]	Ka [3, 5] [L/mol]	Ka [4, 5] [L/mol]
C[C@]12CCC(=O)C[C@@H]1CC[C@@H]1[C@@H]2CC[C@]2(C)[C@@H](O)CC[C@@H]12 [5-alpha-Dihydrotestosterone]	10	2	100	100				
C[C@]12CCC(=O)C[C@H]1CC[C@@H]1[C@@H]2CC[C@]2(C)[C@@H](O)CC[C@@H]12 [5-beta-Dihydrotestosterone]	2	15	8.5	0.5				
C[C@]12CC[C@H]3[C@@H](CCC4=CC(=O)CC[C@@]43C)[C@@H]1CC[C@@H]2O [Testosterone]	100	100	100	100	3.7e+09	1e+10	1.85e+10	2.1e+10
